Measurements as given in PubChem BioAssay AID330 (DTP/NCI, 2004).
Where “and” joins values, the source holds several entries; their conditions need not be identical. Identical values can stand only once. Toxic doses and inconclusive results are not listed. Rule for the calls: active = survival T/C of 150% or more; inactive = T/C below 125% in these data.

System: P388 leukemia ip, CD2F1 mice, survival T/C
Test: NCI In Vivo Anticancer Drug Screen. Data for tumor model P388 Leukemia (intraperitoneal) in CD2F1 (CDF1) mice
Conditions: endpoint: median survival time, higher = longer survival
Method in brief: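 Mice carrying the transplanted tumor received test compound or vehicle. Survival was recorded in each group, and the value is the treated-group measurement divided by that of the vehicle-treated control group.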

[1] = dose: 50.0 mg/kg/injection, schedule: Q01DX005 (ip), vehicle: saline with Tween-80
[2] = dose: 50.0 mg/kg/injection, schedule: Q01DX005 (ip), vehicle: Klucel (hydroxypropylcellulose) (HPC)
[3] = dose: 100.0 mg/kg/injection, schedule: Q01DX005 (ip), vehicle: Klucel (hydroxypropylcellulose) (HPC)
[4] = dose: 200.0 mg/kg/injection, schedule: Q01DX005 (ip), vehicle: Klucel (hydroxypropylcellulose) (HPC)
[5] = dose: 100.0 mg/kg/injection, schedule: Q01DX005 (ip), vehicle: saline with Tween-80
[6] = dose: 200.0 mg/kg/injection, schedule: Q01DX005 (ip), vehicle: saline with Tween-80
[7] = dose: 60.0 mg/kg/injection, schedule: Q01DX005 (ip), vehicle: saline with Tween-80
[8] = dose: 120.0 mg/kg/injection, schedule: Q01DX005 (ip), vehicle: saline with Tween-80
[9] = dose: 240.0 mg/kg/injection, schedule: Q01DX005 (ip), vehicle: saline with Tween-80
[10] = dose: 6.25 mg/kg/injection, schedule: Q01DX009 (ip), vehicle: distilled water + Tween-80
[11] = dose: 12.5 mg/kg/injection, schedule: Q01DX009 (ip), vehicle: distilled water + Tween-80
[12] = dose: 25.0 mg/kg/injection, schedule: Q01DX009 (ip), vehicle: distilled water + Tween-80
[13] = dose: 50.0 mg/kg/injection, schedule: Q01DX009 (ip), vehicle: distilled water + Tween-80
[14] = dose: 100.0 mg/kg/injection, schedule: Q01DX009 (ip), vehicle: distilled water + Tween-80
[15] = dose: 200.0 mg/kg/injection, schedule: Q01DX009 (ip), vehicle: distilled water + Tween-80
[16] = dose: 50.0 mg/kg/injection, schedule: Q01DX009 (ip), vehicle: saline with Tween-80
[17] = dose: 100.0 mg/kg/injection, schedule: Q01DX009 (ip), vehicle: saline with Tween-80
[18] = dose: 200.0 mg/kg/injection, schedule: Q01DX009 (ip), vehicle: saline with Tween-80
[19] = dose: 50.0 mg/kg/injection, schedule: Q01DX009 (ip), vehicle: Klucel (hydroxypropylcellulose) (HPC)
[20] = dose: 100.0 mg/kg/injection, schedule: Q01DX009 (ip), vehicle: Klucel (hydroxypropylcellulose) (HPC)
[21] = dose: 200.0 mg/kg/injection, schedule: Q01DX009 (ip), vehicle: Klucel (hydroxypropylcellulose) (HPC)

Measured: T/C

N#CCc1ccc(N(CCO)CCO)cc1
inactive: dose: 12.5 mg/kg/injection, schedule: Q01DX005 (ip), vehicle: saline with Tween-80 102 % of control | dose: 25.0 mg/kg/injection, schedule: Q01DX005 (ip), vehicle: saline with Tween-80 101 % of control | [1] 101 % of control and 104 % of control

CCCCC(CC1CCCCC1)C(=O)O (stereo not given)
inactive: dose: 50.0 mg/kg/injection, schedule: Q01DX001 (ip), vehicle: saline with Tween-80 113 % of control | dose: 100.0 mg/kg/injection, schedule: Q01DX001 (ip), vehicle: saline with Tween-80 109 % of control | dose: 200.0 mg/kg/injection, schedule: Q01DX001 (ip), vehicle: saline with Tween-80 109 % of control

NCC(=O)NC(CSC(c1ccccc1)c1ccccc1)C(=O)NCC(=O)O (stereo not given)
inactive: [2] 102 % of control | [3] 103 % of control | [4] 96 % of control

Cc1ccc(N)c(C(=O)Nc2ccc(Cl)cc2)c1
inactive: [1] 104 % of control | [5] 91 % of control | [6] 92 % of control

CC1N[P+]2(OC1=O)Oc1ccccc1N2C (stereo not given)
inactive: dose: 87.5 mg/kg/injection, schedule: Q04DX002 (ip), vehicle: Klucel (hydroxypropylcellulose) (HPC) 102 % of control | dose: 175.0 mg/kg/injection, schedule: Q04DX002 (ip), vehicle: Klucel (hydroxypropylcellulose) (HPC) 100 % of control | dose: 350.0 mg/kg/injection, schedule: Q04DX002 (ip), vehicle: Klucel (hydroxypropylcellulose) (HPC) 100 % of control

CC1SC(C)SC(C(C)(C)O)S1 (stereo not given)
inactive: [1] 100 % of control | [5] 100 % of control | [6] 100 % of control

Clc1ccc([C@H]2N[C@@H]2c2ccccn2)cc1
inactive: [7] 94 % of control | [8] 103 % of control | [9] 94 % of control

NC(=O)c1cc2c(oc1=O)-c1ccccc1N(C=O)C2
inactive: [7] 100 % of control | [8] 95 % of control | [9] 95 % of control

CC(C)CC(N)C(=O)NC(Cc1c[nH]c2ccccc12)C(N)=O (stereo not given)
inactive: dose: 50.0 mg/kg/injection, schedule: Q01DX009 (ip), vehicle: saline 93 % of control | dose: 100.0 mg/kg/injection, schedule: Q01DX009 (ip), vehicle: saline 98 % of control | dose: 200.0 mg/kg/injection, schedule: Q01DX009 (ip), vehicle: saline 99 % of control

CC1=CC(O)(CC(N)=O)C=C(C)C1=O
inactive: dose: 3.13 mg/kg/injection, schedule: Q01DX009 (ip), vehicle: distilled water + Tween-80 100 % of control | [10] 100 % of control | [11] 99 % of control | [12] 100 % of control | [13] 100 % of control | [14] 108 % of control | [15] 108 % of control | dose: 400.0 mg/kg/injection, schedule: Q01DX009 (ip), vehicle: distilled water + Tween-80 108 % of control

CCOC(=O)/C(C(=N)c1nc(C)c(C(=O)OCC)c(C(N)=O)n1)=C(/C)O
inactive: [2] 113 % of control | [3] 102 % of control and 90 % of control | [4] 90 % of control and 94 % of control

c1ccc2c(c1)CC1ON3CCc4ccccc4C3C21 (stereo not given)
inactive: [16] 97 % of control | [17] 94 % of control | [18] 92 % of control

CC(=O)CC(c1ccccc1)C(C#N)c1ccccc1 (stereo not given)
inactive: dose: 12.5 mg/kg/injection, schedule: Q04DX003 (ip), vehicle: Klucel (hydroxypropylcellulose) (HPC) 118 % of control | dose: 25.0 mg/kg/injection, schedule: Q04DX003 (ip), vehicle: Klucel (hydroxypropylcellulose) (HPC) 106 % of control | dose: 50.0 mg/kg/injection, schedule: Q04DX003 (ip), vehicle: Klucel (hydroxypropylcellulose) (HPC) 106 % of control

CC(=O)ON1C(=O)C=CC1=O
inactive: dose: 0.78 mg/kg/injection, schedule: Q01DX009 (ip), vehicle: water 109 % of control | dose: 1.56 mg/kg/injection, schedule: Q01DX009 (ip), vehicle: water 101 % of control | dose: 3.13 mg/kg/injection, schedule: Q01DX009 (ip), vehicle: water 104 % of control and 87 % of control | dose: 6.25 mg/kg/injection, schedule: Q01DX009 (ip), vehicle: water 104 % of control and 86 % of control | dose: 12.5 mg/kg/injection, schedule: Q01DX009 (ip), vehicle: water 109 % of control and 90 % of control

CCSC(CCC(NC(C)=O)C(=O)O)SCC (stereo not given)
inactive: [2] 98 % of control | [3] 99 % of control | [4] 91 % of control

O=C1NC(=O)N2CCCOC2C1c1ccccc1 (stereo not given)
inactive: [19] 103 % of control | [20] 99 % of control | [21] 99 % of control

CCCCCCCOCC(=O)OC
inactive: [16] 109 % of control | [17] 108 % of control | [18] 101 % of control

O=[N+]([O-])c1ccc2nc(CC(O)(C(F)(F)F)C(F)(F)F)ccc2c1
inactive: [17] 115 % of control | [18] 90 % of control | dose: 400.0 mg/kg/injection, schedule: Q01DX009 (ip), vehicle: saline with Tween-80 95 % of control

O=c1c2c([nH]c3c1c1[nH]c4c(c(=O)c1c1[nH]c5c(c(=O)c31)CCCC5)CCCC4)CCCC2
inactive: dose: 25.0 mg/kg/injection, schedule: Q04DX003 (ip), vehicle: saline with Tween-80 104 % of control | dose: 50.0 mg/kg/injection, schedule: Q04DX003 (ip), vehicle: saline with Tween-80 95 % of control | dose: 100.0 mg/kg/injection, schedule: Q04DX003 (ip), vehicle: saline with Tween-80 87 % of control and 95 % of control

COC(=O)c1ccc(SCC/C(CN2C(=O)c3ccccc3C2=O)=N\O)cc1
inactive: [19] 95 % of control | [20] 99 % of control | [21] 88 % of control

C[n+]1c(-c2ccc(/C=N/NC(=O)c3ccc(C(=O)N/N=C/c4ccc(-c5cn6ccccc6[n+]5C)cc4)c(O)c3O)cc2)cn2ccccc21
inactive: [1] 107 % of control | [5] 96 % of control

OCC1OC(n2ncc3c(Cl)ccnc32)C(O)C1O (stereo not given)
inactive: dose: 4.0 mg/kg/injection, schedule: Q01DX005 (ip), vehicle: saline with Tween-80 100 % of control | dose: 8.0 mg/kg/injection, schedule: Q01DX005 (ip), vehicle: saline with Tween-80 103 % of control | dose: 16.0 mg/kg/injection, schedule: Q01DX005 (ip), vehicle: saline with Tween-80 97 % of control | dose: 32.0 mg/kg/injection, schedule: Q01DX005 (ip), vehicle: saline with Tween-80 109 % of control | dose: 64.0 mg/kg/injection, schedule: Q01DX005 (ip), vehicle: saline with Tween-80 100 % of control

O=c1[nH][nH]c(=O)c2c1CCC2
inactive: [10] 100 % of control | [11] 100 % of control | [12] 100 % of control | [13] 107 % of control | [14] 103 % of control | [15] 100 % of control

CC1(c2ccccc2)CCC(O)CC1CC(=O)O (stereo not given)
inactive: [1] 98 % of control | [5] 100 % of control | [6] 101 % of control

CCOc1c(N=Nc2ccc(C)cc2)c(C)nn1C(N)=S
inactive: dose: 15.0 mg/kg/injection, schedule: Q01DX005 (ip), vehicle: Klucel + Tween-80 103 % of control | dose: 30.0 mg/kg/injection, schedule: Q01DX005 (ip), vehicle: Klucel + Tween-80 105 % of control
